Laboratory results from article PMC3366684, “Studies on the Synthesis of Derivatives of Marine-Derived Bostrycin and Their Structure-Activity Relationship against Tumor Cells” (Marine Drugs, 2012).

Experiments:
[1] = test system: MCF-7 cells; assay: MTT cytotoxicity assay, MCF-7; format: cell-based, human; settings: for IC50: MCF7, human breast cancer cell line, MTT, 48 h exposure, mean ± SD, three independent experiments
Protocol: (§1) All compounds were evaluated for their in vitro cytotoxic activity against five human cancer cell lines including human breast MCF-7, human breast MDA-MB-435, human lung A549, human liver HepG2 and human colon HCT-116, and compared with their effects on the immortalized human breast epithelial cell line MCF-10A by MTT assay using epirubicin (an anticancer drug used widely in the clinic) as positive control.
(§2) MCF-7, MDA-MB-435, A549, HepG2 and HCT-116 cells were cultured in Dulbecco’s modification Eagle’s medium (DMEM, Invitrogen, Carlsbad, CA, USA) supplemented with 10% fetal bovine serum (FBS, Hyclone, Logan, UT, USA), 2 mM L-glutamine, 100 μg/mL streptomycin and 100 U/mL penicillin (Invitrogen). MCF-10A cells were cultured in keratinocyte serum free medium (KSFM) supplemented with 0.1–0.2 ng/mL human recombinant epidermal growth factor and 20–30 μg/mL bovine pituitary extract (Invitrogen). The cells were incubated at 37 °C in a humidified atmosphere with 5% CO2.
(§3) Cells were harvested during logarithmic growth phase and seeded in 96-well plates at a density of 1 × 10^4 cells/mL, and cultured at 37 °C in a humidified incubator (5% CO2) for 24 h, followed by exposure to various concentrations of compounds tested for 48 h. Subsequently 20 μL of MTT (Genview, Houston, TX, USA) solution (5 mg/mL) was added to each well and mixed, the cells were then incubated for an additional 4 h. Culture supernatant was moved, 150 μL of DMSO (Sangon Biotech, Shanghai, China) was added to each well to fully dissolve the MTT-formazan crystals. Cell growth inhibition was determined by measuring the absorbance (Abs) at λ = 570 nm using a microplate reader and calculated according to the following equation:
(§4) Growth inhibition = (1 − OD of treated cells/OD of control cells) × 100%
(§5) The half maximal inhibitory concentrations (IC50) were obtained from liner regression analysis of the concentration-response curves plotted for each tested compound.

[2] = test system: MDA-MB-435 cells; assay: MTT cytotoxicity assay, MDA-MB-435; format: cell-based, human; settings: for IC50: MDA-MB-435, human breast cancer cell line, MTT, 48 h exposure, mean ± SD, three independent experiments
Protocol: as §1, §2, §3, §4, §5

[3] = test system: A549 cells; assay: MTT cytotoxicity assay, A549; format: cell-based, human; settings: for IC50: A549, human lung cancer cell line, MTT, 48 h exposure, mean ± SD, three independent experiments
Protocol: as §1, §2, §3, §4, §5

[4] = test system: HepG2 cells; assay: MTT cytotoxicity assay, HepG2; format: cell-based, human; settings: for IC50: human liver cancer cell line, MTT, 48 h exposure, mean ± SD, three independent experiments
Protocol: as §1, §2, §3, §4, §5

[5] = test system: HCT-116 cells; assay: MTT cytotoxicity assay, HCT-116; format: cell-based, human; settings: for IC50: HCT-116, human colon cancer cell line, MTT, 48 h exposure, mean ± SD, three independent experiments
Protocol: as §1, §2, §3, §4, §5

[6] = MTT cytotoxicity assay, MCF-10A; format: cell-based; settings: MCF-10A cells, immortalized human breast epithelial cell line, 48 h exposure, mean ± SD, three independent experiments
Protocol: as §1, §2, §3, §4, §5

[7] = ratio of IC50 values, bostrycin vs compound

SMILES | IC50 [1] [µM] | IC50 [2] [µM] | IC50 [3] [µM] | IC50 ([4]; Homo sapiens, HepG2, 48 h) [µM] | IC50 [5] [µM] | IC50 at 48 h [6] [µM] | melting point [°C] | fold more active than bostrycin, MCF-7 [1, 7] [fold] | fold more active than bostrycin, MDA-MB-435 [2, 7] [fold] | fold more active than bostrycin, A549 [3, 7] [fold] | IC50 [4] [µM] | fold more active than bostrycin, HepG2 [4, 7] [fold] | fold more active than bostrycin, HCT-116 [5, 7] [fold]
C[C@]1(O)Cc2c(O)c3c(c(O)c2[C@H](O)[C@H]1O)C(=O)C=C(NCCOCCO)C3=O [Compound 14, 6-[(2″-Hydroxyethoxy)ethylamino]-6-demethoxybostrycin] | > 50 | > 50 | > 50 | > 50 | > 50 | > 50 | 112 to 113 | – | – | – | – | – | –
C[C@]1(O)Cc2c(O)c3c(c(O)c2[C@H](O)[C@H]1O)C(=O)C1=C(SCCS1)C3=O [Compound 28, 6,7-(Ethan-1′,2′-yl-dithio)-6-demethoxybostrycin] | 0.57 ± 0.04 | 0.63 ± 0.45 | 0.37 ± 0.04 | – | 0.68 ± 0.08 | 0.81 ± 0.11 | > 300 | 3.8 | 4.5 | 7.1 | 0.82 ± 0.01 | 9.4 | 7.0
C[C@]1(O)Cc2c(O)c3c(c(O)c2[C@H](O)[C@H]1O)C(=O)C=C(N1CCCCC1)C3=O [Compound 20, 6-(Piperidin-1-yl)-6-demethoxybostrycin] | 3.14 ± 0.31 | 4.04 ± 0.35 | 3.16 ± 0.23 | 1.99 ± 0.17 | 2.81 ± 0.31 | – | 199 to 200 | – | – | – | – | – | –
COC1=CC(=O)c2c(cc3c(c2O)C[C@@H](O)[C@@](C)(O)C3)C1=O [Compound 3, Nigrosporin B] | 6.19 ± 0.6 | 2.91 ± 0.18 | 4.72 ± 0.17 | 31 ± 0.71 | 4.7 ± 0.39 | 28.6 ± 0.91 | > 300 | – | – | – | – | – | –
COC1=CC(=O)c2c(O)c3c(c(O)c2C1=O)C[C@]1(C)OCO[C@@H]1[C@H]3OCO [Compound 7, 1-O-(hydroxymethyl)-2,3-O-(methylene) Bostrycin] | 2.52 ± 0.26 | 4.25 ± 0.57 | 0.78 ± 0.04 | 4.58 ± 0.5 | 3.06 ± 0.1 | 4.79 ± 0.52 | 233 to 234 | – | – | – | – | – | –
CNC1=CC(=O)c2c(O)c3c(c(O)c2C1=O)C[C@](C)(O)[C@H](O)[C@H]3O [Compound 9, 6-(Methylamino)-6-demethoxybostrycin] | 3.58 ± 0.65 | > 50 | 31.1 ± 1.94 | 22.4 ± 1.16 | 34.2 ± 1.27 | > 50 | – | – | – | – | – | – | –
COC1=CC(=O)c2c(O)c3c(c(O)c2C1=O)C[C@](C)(O)[C@H](O)[C@H]3O [Compound 1, Bostrycin] | 2.18 ± 0.14 | 2.82 ± 0.17 | 2.63 ± 0.33 | 7.71 ± 0.72 | 4.78 ± 0.03 | 14.1 ± 0.58 | – | – | – | – | – | – | –
C[C@]1(O)Cc2c(O)c3c(c(O)c2[C@H](O)[C@H]1O)C(=O)C=C(N1CCC(c2ccccc2)CC1)C3=O [Compound 22, 6-(4′-Phenylpiperidin-1-yl)-6-demethoxybostrycin] | 4.81 ± 0.4 | 0.95 ± 0.13 | 0.76 ± 0.03 | 6.61 ± 1.12 | 0.75 ± 0.05 | – | 221 to 222 | – | – | – | – | – | –
COc1ccc(NC2=CC(=O)c3c(O)c4c(c(O)c3C2=O)C[C@](C)(O)[C@H](O)[C@H]4O)cc1 [Compound 16, 6-(p-Methoxyphenylamino)-6-demethoxybostrycin] | 39.4 ± 0.68 | 36.4 ± 2.08 | 41.4 ± 2.86 | 30.3 ± 1.63 | 43.3 ± 1.56 | – | 202 to 203 | – | – | – | – | – | –
COc1ccc(CNC2=CC(=O)c3c(O)c4c(c(O)c3C2=O)C[C@](C)(O)[C@H](O)[C@H]4O)cc1 [Compound 18, 6-(p-Methoxybenzylamino)-6-demethoxybostrycin] | 9.17 ± 0.28 | 25.6 ± 1.71 | 15.2 ± 0.42 | > 50 | 13.6 ± 1.85 | 27.7 ± 0.93 | 149 to 150 | – | – | – | – | – | –
CCCCCCNC1=CC(=O)c2c(O)c3c(c(O)c2C1=O)C[C@](C)(O)[C@H](O)[C@H]3O [Compound 12, 6-(n-Hexylamino)-6-demethoxybostrycin] | 4.87 ± 0.23 | 4.25 ± 0.75 | 3.74 ± 0.67 | 12.9 ± 0.96 | 4.06 ± 0.65 | – | 203 to 204 | – | – | – | – | – | –
C[C@]1(O)Cc2c(O)c3c(c(O)c2[C@H](O)[C@H]1O)C(=O)C=C(Nc1ccccc1)C3=O [Compound 15, 6-(Phenylamino)-6-demethoxybostrycin] | 3.72 ± 0.27 | 10.3 ± 0.45 | 4.87 ± 0.43 | > 50 | 4.84 ± 0.25 | 41.6 ± 0.51 | 226 to 227 | – | – | – | – | – | –
CCSC1=C(SCC)C(=O)c2c(O)c3c(c(O)c2C1=O)C[C@](C)(O)[C@H](O)[C@H]3O [Compound 23, 6,7-bis(Ethylthio)-6-demethoxybostrycin] | 0.71 ± 0.01 | 0.76 ± 0.06 | 4.07 ± 0.51 | 6.9 ± 0.26 | 0.95 ± 0.06 | 14.8 ± 0.96 | 180 to 181 | – | – | – | – | – | –
C[C@]1(O)Cc2c(O)c3c(c(O)c2[C@H](O)[C@H]1O)C(=O)C(SCCO)=C(SCCO)C3=O [Compound 26, 6,7-bis(2′-Hydroxyethylthio)-6-demethoxybostrycin] | 14.4 ± 0.42 | 13.3 ± 0.2 | 26.1 ± 3.15 | 22.7 ± 1.95 | 12 ± 1.53 | – | 156 to 158 | – | – | – | – | – | –
CCCCCCSC1=C(SCCCCCC)C(=O)c2c(O)c3c(c(O)c2C1=O)C[C@](C)(O)[C@H](O)[C@H]3O [Compound 25, 6,7-bis(n-Hexylthio)-6-demethoxybostrycin] | 2.6 ± 0.45 | 10.6 ± 1.11 | 0.71 ± 0.01 | 3.33 ± 0.66 | 0.74 ± 0.1 | 35 ± 1.94 | 112 to 113 | – | – | – | – | – | –
C[C@]1(O)Cc2c(O)c3c(c(O)c2[C@H](O)[C@H]1O)C(=O)C=C(NCCO)C3=O [Compound 13, 6-(2′-Hydroxyethylamino)-6-demethoxybostrycin] | 35.6 ± 1.4 | > 50 | > 50 | 32.2 ± 2.43 | 35.9 ± 1.13 | > 50 | 202 to 203 | – | – | – | – | – | –
C[C@]1(O)Cc2c(O)c3c(c(O)c2[C@H](O)[C@H]1O)C(=O)C(SCCCO)=C(SCCCO)C3=O [Compound 27, 6,7-bis(3′-Hydroxy-n-propylthio)-6-demethoxybostrycin] | 6.01 ± 0.39 | 3.19 ± 0.15 | 7.31 ± 0.58 | 3.18 ± 0.75 | 3.08 ± 0.35 | – | 150 to 151 | – | – | – | – | – | –
COC1=CC(=O)c2c(O)c3c(c(O)c2C1=O)C[C@]1(C)OC(C)(C)O[C@@H]1[C@H]3O [Compound 5, 2,3-O-(isopropylidene) Bostrycin] | 6.87 ± 0.33 | 5.96 ± 0.21 | 4.25 ± 0.16 | 37 ± 1.97 | 11 ± 1.35 | 18.1 ± 1.3 | 228 to 229 | – | – | – | – | – | –
COC1=CC(=O)c2c(O)c3c(c(O)c2C1=O)C[C@]1(C)OC(C=C(C)C)O[C@@H]1[C@H]3O (stereo partly shown) [Compound 6, 2,3-O-(3′-methylbut-2′-enyl) Bostrycin] | 7.99 ± 0.09 | 11.7 ± 1.18 | 5.5 ± 0.24 | 22.3 ± 2.89 | 7.83 ± 0.32 | 34.1 ± 0.85 | 200 to 201 | – | – | – | – | – | –
COc1cccc2c1C(=O)c1c(O)c3c(c(O)c1C2=O)C[C@@](O)(C(=O)CO)C[C@@H]3O[C@H]1C[C@H](N)[C@@H](O)[C@H](C)O1 [epirubicin, reference compound] | 0.96 ± 0.08 | 0.56 ± 0.06 | 0.61 ± 0.05 | 0.96 ± 0.02 | 0.48 ± 0.03 | 0.48 ± 0.08 | – | – | – | – | – | – | –
CC1CCN(C2=CC(=O)c3c(O)c4c(c(O)c3C2=O)C[C@](C)(O)[C@H](O)[C@H]4O)CC1 [Compound 21, 6-(4′-Methylpiperidin-1-yl)-6-demethoxybostrycin] | 4.62 ± 0.44 | 6.38 ± 0.47 | 3.06 ± 0.46 | 6.09 ± 1.14 | 3.25 ± 0.67 | – | 162 to 163 | – | – | – | – | – | –
CC1SC2=C(SC1C)C(=O)c1c(O)c3c(c(O)c1C2=O)C[C@](C)(O)[C@H](O)[C@H]3O (stereo partly shown) [Compound 29, 6,7-(Butan-2′,3′-yl-dithio)-6-demethoxybostrycin] | 3.18 ± 0.22 | 0.55 ± 0.11 | 4.06 ± 0.35 | 2.55 ± 0.55 | 0.73 ± 0.02 | – | 146 to 147 | – | – | – | – | – | –
